From paper PMC10300026, “Discovery of an OTUD3 inhibitor for the treatment of non-small cell lung cancer” (Cell Death & Disease, 2023)

Target: T1, OTUD3 (Homo sapiens, UniProt Q5T2D3)
T1 construct: OTUD3 OTU (aa 52-209)
T1 sequence (Q5T2D3 52-209): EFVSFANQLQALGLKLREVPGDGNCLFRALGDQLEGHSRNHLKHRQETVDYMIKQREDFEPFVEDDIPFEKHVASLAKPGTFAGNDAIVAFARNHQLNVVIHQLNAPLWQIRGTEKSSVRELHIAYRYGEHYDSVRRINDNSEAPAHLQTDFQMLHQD
Experiment: SPR (Biacore T200, CM5 chip); supported by in vitro K48/K63 di-ubiquitin cleavage inhibition
Assay type: binding

## O=C(Nc1cccc(-c2nc3ccccc3[nH]2)c1)c1ccc(S(=O)(=O)N2CCc3ccccc3C2)cc1 [compound 16, 4-[dioxo(1,2,3,4-tetrahydroisoquinolin-2-yl)-λ6-sulfanyl]-N-[3-(1H-benzo[d]imidazol-2-yl)phenyl]benzamide]
  Kd: 320 nM
